Assays:
[1] = Resazurin reduction assay (growth inhibition / cytotoxicity); conditions: human
Description: (§1) To investigate the effects of the in silico identified compounds on cell viability, we used CYP2C19-overexpressing HepG2 cells (Figure 3). Different concentrations (ranging from 0.003 to 100 μM) were tested.
(§2) Figure 3 Resazurin assay of cytochrome P450 2C19-overexpressing HepG2 cells treated with different concentrations of the six selected compounds. All experiments were performed in three replicate measurements of mean ± SD.
(§3) CYP2C19-overexpressing HepG2 cells were originated as previously described. Cells were grown in DMEM medium (DMEM, 31966021, Gibco™, Billings, MT, USA) at 37 °C and 5% CO2 in a humidified incubator. DMEM media were supplemented with 10% fetal bovine serum (FBS) and with 3 μg/mL blasticidin (ant-bl-05, InvivoGen, San Diego, CA, USA) to preserve the selection of transfected CYP2C19-overexpressing HepG2 cells.
(§4) Aliquots of 10^4 CYP2C19-overexpressing HepG2 cells were seeded per well into 96-well plates. Cells were treated with different concentrations of the selected compounds with a range from 0.003 to 100 µM in a total volume of 200 µL for 72 h. Successively, 20 µL/well of resazurin 0.01% w/v (Sigma Aldrich, Taufkirchen, Germany) was added. The fluorescence intensity was measured with an Infinite M200 Pro-plate reader (Tecan, Crailsheim, Germany). Dose–response curves were engendered for three independent experiments for each compound, and 50% inhibition concentrations (IC50) were calculated. The analysis was represented using the […] GraphPad Software (version 9.5.1) (La Jolla, CA, USA).

[2] = tested on: CYP2C19-overexpressing HepG2 cells; assay: as above; conditions: CYP2C19-overexpressing HepG2 cells, 0.003 to 100 μM, 72 h
Description: as §1, §2, §3, §4

[3] = tested on: CYP2C19-overexpressing HepG2 cells; assay: RNA sequencing with pathway enrichment analysis; format: cell-based; conditions: for genes of 'cholesterol biosynthetic process' influenced by only one compound: Venn diagram of compounds 4-6, vs DMSO; for genes of 'DNA replication' pathway exclusively influenced by the compound: Venn diagram of compounds 4 and 6, vs DMSO
Description: Functional enrichment analysis with clusterProfiler was executed using the gene ontology biological process annotation. Finally, with the GeneTonic software (version 2.4.0), a visual summary of the influenced pathways, from here on referred to as 'enriched pathways', was created. […] The size of the dots corresponds to the number of genes in the reference gene set. […] Control cells were treated with 0.2% DMSO. After 24 h of incubation, the cells were harvested. RNA extraction was performed with an […] RNA Mini Kit (Invitek Molecular GmbH, Berlin, Germany) according to the manufacturer's instructions. The cell pellet was lysed with 350 μL of Lysis Solution and treated with β-mercaptoethanol. After DNA removal, 350 μL of 70% ethanol was added, and the sample was applied onto the RNA-RTA spin filter. After several washing steps, RNA was eluted with 60 μL of Elution Buffer R, and the concentration and purity were measured with NanoDrop. RNA sequencing was performed by […] GmbH, Mainz, Germany. The quality of the extracted RNA was verified by the company with a 2100 Bioanalyzer system (Agilent Technologies, Santa Clara, CA, USA). After mRNA isolation and library preparation using a NEBNext^© UltraTM II Directional RNA Library Prep Kit (New England Biolabs, Ipswich, MA, USA), RNA sequencing of around 25 Mio PE reads (2 × 12.5 M reads, 2 × 150 nt) was performed with an Illumina NextSeq 2000TM system. Each treatment and control group included two replicates. The FastQC tool (0.12.0, https://www.bioinformatics.babraham.ac.uk/projects/fastqc/) (accessed 15 February 2023) was used for quality control on the sequencing data. Transcript abundance estimates were computed with Salmon (version 1.5.0) with a transcriptome index generated by GENCODE (version 38) and then summarized to the gene level with the […] package (version 1.16.0). Exploration, modelling, and interpretation of the expression data followed the protocols defined by Ludt et al. […] Exploratory data analysis was performed with the pcaExplorer package (version 2.24.0). […] Accurate estimation of the effect sizes (described as log2-fold changes) was performed using the […] shrinkage estimator (version 1.20.0). Further analyses included gene ontology pathway enrichment by topGO (version 2.50.0) using all expressed genes as a background dataset and the ideal package (version 1.22.0) and by clusterProfiler (version 4.6.0) with default settings and the log2-fold change as the input.

[4] = tested on: CYP2C19-overexpressing HepG2 cells; format: cell-based
Description: Figure 8 Flow cytometric cell cycle analysis of cytochrome CYP2C19-overexpressing HepG2 cells treated with IC50 concentrations of compounds 4 and 6. The data are represented as mean and SD of three independent experiments. (* p < 0.05, ** p < 0.01, compared to DMSO-treated cells).
CYP2C19-overexpressing HepG2 cells were treated with IC50 concentrations of compounds 4 and 6 for 24 h. Then, the cells were fixed using 80% cold ethanol and stored overnight at −20 °C. Successively, the cells were washed twice with PBS and resuspended in 1 mL of cold PBS containing 1mg/mL RNaseA (Sigma-Aldrich, Taufkirchen, Germany) and 50 μg/mL PI (Sigma-Aldrich, Taufkirchen, Germany). After 15 min of incubation, the measurements were performed using a BD LSRFortessa™ Cell Analyzer (Becton-Dickinson, Heidelberg, Germany). DMSO-treated cells were used as a negative control.

[5] = IC50 concentration, 24 h, vs DMSO

SMILES | IC50 at 72 h [1] [µM] | cell death mechanisms 'autophagy' and 'process utilizing autophagic mechanism' [3, 5] | mitosis-related pathways ('mitotic sister chromatid segregation', 'sister chromatid segregation', 'regulation of mitotic sister chromatid separation', 'chromosome organization') [3, 5] | pathway 'DNA replication' [3, 5] | pathways 'cholesterol metabolic process' and 'sterol metabolic process' [3, 5] | pathways 'cytokine production' and 'regulation of cytokine production' [3, 5] | genes of 'cholesterol biosynthetic process' influenced by only one compound [3] | genes of 'DNA replication' pathway exclusively influenced by the compound [3] | affected genes related to 'regulation of cytokine production' ([3]; vs DMSO) [genes] | G0/G1 population [4] [%] | percentage change in the sub-G0 and G2/M phases [4] | percentage of S-phase cells [4] [%] | other results
O=C(OC1CCCCC1)c1ccccc1C(=O)OC1CCCCC1 [compound 1, dicyclohexyl phthalate] | 88 ± 7.77 |  |  |  |  |  |  |  |  |  |  |  | 
CC(C)COC(=O)c1ccccc1C(=O)OCC(C)C [compound 2, diisobutyl phthalate] | > 100 |  |  |  |  |  |  |  |  |  |  |  | cytotoxic effect [2]: did not exhibit any cytotoxic effect
CC(C)(C)CC(C)(C)c1ccc(O)c(-n2nc3ccccc3n2)c1 [compound 3, octrizole] | 67.5 ± 2.05 |  |  |  |  |  |  |  |  |  |  |  | 
Cc1cc(Cc2cc(C)cc(C(C)(C)C)c2O)c(O)c(C(C)(C)C)c1 [compound 4, 2,2′-methylene bis(6-tert-butyl-4-methylphenol)] | 18.6 ± 0.94 | activated | suppressed | suppressed | suppressed | activated | two | Forty-one | 82 | 74.11 ± 1.98 | No significant percentage change | 8.05 ± 1.92 | pathway 'DNA-templated DNA replication' [3, 5]: suppressed; pathway 'metaphase/anaphase transition of mitotic cell cycle' [3, 5]: suppressed
CC(c1cc(C(C)(C)C)cc(C(C)(C)C)c1O)c1cc(C(C)(C)C)cc(C(C)(C)C)c1O [compound 5, 1,1-bis(3,5-di-tert-butyl-2-hydroxyphenyl)ethane] | 18.1 ± 0.68 | activated |  |  | suppressed | activated | three |  | 80 |  |  |  | pathways 'steroid biosynthetic process', 'alcohol biosynthetic pathway', 'alcohol metabolic process', 'organic hydroxy compound metabolic process' [3, 5]: suppressed
Cc1cc(Cc2cc(C)cc(C3CCCCC3)c2O)c(O)c(C2CCCCC2)c1 [compound 6, 2,2′-methylene bis(6-cyclohexyl-4-methylphenol)] | 20.16 ± 0.06 |  | suppressed | suppressed |  |  | one | nine |  | 72.30 ± 1.68 | No significant percentage change | 6.76 ± 3.28 | angiogenesis-related pathways 'vasculature development', 'blood vessel morphogenesis', 'blood vessel development' [3, 5]: activated; pathway 'inflammatory response' [3, 5]: activated; pathway 'response to nutrients levels' [3, 5]: activated; pathways 'nuclear chromosome segregation', 'mitotic nuclear division', 'chromosome segregation' [3, 5]: down-regulated

Reference: article PMC10459118, “The Effect of Plastic-Related Compounds on Transcriptome-Wide Gene Expression on CYP2C19-Overexpressing HepG2 Cells” (Molecules, 2023)
